Results: paper PMC11561307, “Ultra-inert lanthanide chelates as mass tags for multiplexed bioanalysis” (Nature Communications, 2024)

Assay: Kinetic inertness: acid-assisted dechelation in excess HCl
Type: physicochemical
Details: for t½ (0.1 M HCl, 80 °C) / t½ (1.0 M HCl, 80 °C) / t½ (6.0 M HCl, 80 °C) / t½ (0.1 M HCl, 25 °C): dechelation half-life, HPLC-UV after 1 h, 1 day, 1 week, 1 month, ± error of the fit; for t½ (0.1 M HCl, 80 °C) / t½ (0.1 M HCl, 25 °C): 0.5 mM chelate in 0.1 M HCl; for t½ (0.1 M HCl, 80 °C) / t½ (1.0 M HCl, 80 °C) / t½ (0.1 M HCl, 25 °C): exponential decay fit; for t½ (1.0 M HCl, 80 °C): 0.5 mM chelate in 1.0 M HCl; for t½ (6.0 M HCl, 80 °C): 0.5 mM chelate in 6.0 M HCl, fit y = exp(−x/t), t½ = ln(2) × t; for abundance of intact chelate: section above Supp. Fig 16, head with acid, temperature and time not given; for half-life / half-life, h: Figure 2A

O=C([O-])CN1CCN2CCN(CC(=O)[O-])CCN(CC1)Cc1cccc(n1)-c1cn(nn1)Cc1cc(-c3ccccc3)cc(n1)C2.[Gd+3] [1,4-cz-[Gd(PhL1)]]
t½ (0.1 M HCl, 80 °C) (80 °C): too unstable
t½ (1.0 M HCl, 80 °C) (80 °C): too unstable
t½ (6.0 M HCl, 80 °C) (80 °C): too unstable
abundance of intact chelate: 97.8%

O=C([O-])CN1CCN2CCN(CC(=O)[O-])CCN(CC1)Cc1cccc(n1)-c1cn(nn1)Cc1cc(-c3ccccc3)cc(n1)C2.[Lu+3] [1,4-cz-[Lu(PhL1)]]
t½ (0.1 M HCl, 80 °C) (80 °C): too unstable
t½ (1.0 M HCl, 80 °C) (80 °C): too unstable
t½ (6.0 M HCl, 80 °C) (80 °C): too unstable
abundance of intact chelate: 98.7%

O=C([O-])CN1CCN2CCN(CC(=O)[O-])CCN(CC1)Cc1cccc(n1)-c1cnnn1Cc1cc(-c3ccccc3)cc(n1)C2.[Ca+2] [Ph{Ca}]
t½ (0.1 M HCl, 80 °C) (80 °C): too unstable
t½ (1.0 M HCl, 80 °C) (80 °C): too unstable
t½ (6.0 M HCl, 80 °C) (80 °C): too unstable
abundance of intact chelate: 38.9%

O=C([O-])CN1CCN2CCN(CC(=O)[O-])CCN(CC1)Cc1cccc(n1)-c1cnnn1Cc1cc(-c3ccccc3)cc(n1)C2.[Ce+3] [Ph{Ce}]
half-life (0.1 M HCl, 25 °C): 16.5 h
half-life, h (0.1 M HCl, 80 °C): too unstable
half-life, h (1.0 M HCl, 80 °C): too unstable
half-life, h (6.0 M HCl, 80 °C): too unstable
t½ (0.1 M HCl, 80 °C) (80 °C): too unstable
t½ (1.0 M HCl, 80 °C) (80 °C): too unstable
t½ (6.0 M HCl, 80 °C) (80 °C): too unstable

O=C([O-])CN1CCN2CCN(CC(=O)[O-])CCN(CC1)Cc1cccc(n1)-c1cnnn1Cc1cc(-c3ccccc3)cc(n1)C2.[Dy+3] [Ph{Dy}]
half-life, h (0.1 M HCl, 25 °C): too stable
half-life (0.1 M HCl, 80 °C): 95000 h
half-life (1.0 M HCl, 80 °C): 3500 h
half-life (6.0 M HCl, 80 °C): 12 h
t½ (0.1 M HCl, 25 °C) (25 °C): too stable
abundance of intact chelate: 100.0%

O=C([O-])CN1CCN2CCN(CC(=O)[O-])CCN(CC1)Cc1cccc(n1)-c1cnnn1Cc1cc(-c3ccccc3)cc(n1)C2.[Er+3] [Ph{Er}]
half-life, h (0.1 M HCl, 25 °C): too stable
half-life, h (0.1 M HCl, 80 °C): too stable
half-life (1.0 M HCl, 80 °C): 59200 h
half-life (6.0 M HCl, 80 °C): 343 h
t½ (0.1 M HCl, 25 °C) (25 °C): too stable
t½ (0.1 M HCl, 80 °C) (80 °C): too stable
abundance of intact chelate: 100.0%

O=C([O-])CN1CCN2CCN(CC(=O)[O-])CCN(CC1)Cc1cccc(n1)-c1cnnn1Cc1cc(-c3ccccc3)cc(n1)C2.[Eu+3] [Ph{Eu}]
half-life, h (0.1 M HCl, 25 °C): too stable
half-life (0.1 M HCl, 80 °C): 380 h
half-life (1.0 M HCl, 80 °C): 7.3 h
half-life, h (6.0 M HCl, 80 °C): too unstable
t½ (0.1 M HCl, 25 °C) (25 °C): too stable
t½ (6.0 M HCl, 80 °C) (80 °C): too unstable

O=C([O-])CN1CCN2CCN(CC(=O)[O-])CCN(CC1)Cc1cccc(n1)-c1cnnn1Cc1cc(-c3ccccc3)cc(n1)C2.[Gd+3] [Ph{Gd}]
half-life, h (0.1 M HCl, 25 °C): too stable
half-life (0.1 M HCl, 80 °C): 2470 h
half-life (1.0 M HCl, 80 °C): 30.4 h
half-life (6.0 M HCl, 80 °C): 0.17 h
t½ (0.1 M HCl, 25 °C) (25 °C): too stable

O=C([O-])CN1CCN2CCN(CC(=O)[O-])CCN(CC1)Cc1cccc(n1)-c1cnnn1Cc1cc(-c3ccccc3)cc(n1)C2.[Ho+3] [Ph{Ho}]
half-life, h (0.1 M HCl, 25 °C): too stable
half-life, h (0.1 M HCl, 80 °C): too stable
half-life (1.0 M HCl, 80 °C): 13200 h
half-life (6.0 M HCl, 80 °C): 68.2 h
t½ (0.1 M HCl, 25 °C) (25 °C): too stable
t½ (0.1 M HCl, 80 °C) (80 °C): too stable
abundance of intact chelate: 100.0%

O=C([O-])CN1CCN2CCN(CC(=O)[O-])CCN(CC1)Cc1cccc(n1)-c1cnnn1Cc1cc(-c3ccccc3)cc(n1)C2.[La+3] [Ph{La}]
half-life (0.1 M HCl, 25 °C): 2.48 h
half-life, h (0.1 M HCl, 80 °C): too unstable
half-life, h (1.0 M HCl, 80 °C): too unstable
half-life, h (6.0 M HCl, 80 °C): too unstable
t½ (0.1 M HCl, 80 °C) (80 °C): too unstable
t½ (1.0 M HCl, 80 °C) (80 °C): too unstable
t½ (6.0 M HCl, 80 °C) (80 °C): too unstable

O=C([O-])CN1CCN2CCN(CC(=O)[O-])CCN(CC1)Cc1cccc(n1)-c1cnnn1Cc1cc(-c3ccccc3)cc(n1)C2.[Lu+3] [Ph{Lu}]
estimated half-life (6.0 M HCl at 80 °C): ~3 years
half-life, h (0.1 M HCl, 25 °C): too stable
half-life, h (0.1 M HCl, 80 °C): too stable
half-life, h (1.0 M HCl, 80 °C): too stable
half-life (6.0 M HCl, 80 °C): 25300 h
t½ (0.1 M HCl, 25 °C) (25 °C): too stable
t½ (0.1 M HCl, 80 °C) (80 °C): too stable
t½ (1.0 M HCl, 80 °C) (80 °C): too stable
abundance of intact chelate: 100.0%

O=C([O-])CN1CCN2CCN(CC(=O)[O-])CCN(CC1)Cc1cccc(n1)-c1cnnn1Cc1cc(-c3ccccc3)cc(n1)C2.[Nd+3] [Ph{Nd}]
half-life (0.1 M HCl, 25 °C): 179 h
half-life (0.1 M HCl, 80 °C): 2.55 h
half-life, h (1.0 M HCl, 80 °C): too unstable
half-life, h (6.0 M HCl, 80 °C): too unstable
t½ (1.0 M HCl, 80 °C) (80 °C): too unstable
t½ (6.0 M HCl, 80 °C) (80 °C): too unstable

O=C([O-])CN1CCN2CCN(CC(=O)[O-])CCN(CC1)Cc1cccc(n1)-c1cnnn1Cc1cc(-c3ccccc3)cc(n1)C2.[Pr+3] [Ph{Pr}]
half-life (0.1 M HCl, 25 °C): 51.7 h
half-life (0.1 M HCl, 80 °C): 0.467 h
half-life, h (1.0 M HCl, 80 °C): too unstable
half-life, h (6.0 M HCl, 80 °C): too unstable
t½ (1.0 M HCl, 80 °C) (80 °C): too unstable
t½ (6.0 M HCl, 80 °C) (80 °C): too unstable

O=C([O-])CN1CCN2CCN(CC(=O)[O-])CCN(CC1)Cc1cccc(n1)-c1cnnn1Cc1cc(-c3ccccc3)cc(n1)C2.[Sm+3] [Ph{Sm}]
half-life (0.1 M HCl, 25 °C): 13400 h
half-life (0.1 M HCl, 80 °C): 111 h
half-life (1.0 M HCl, 80 °C): 1.46 h
half-life, h (6.0 M HCl, 80 °C): too unstable
t½ (6.0 M HCl, 80 °C) (80 °C): too unstable

O=C([O-])CN1CCN2CCN(CC(=O)[O-])CCN(CC1)Cc1cccc(n1)-c1cnnn1Cc1cc(-c3ccccc3)cc(n1)C2.[Tb+3] [Ph{Tb}]
half-life, h (0.1 M HCl, 25 °C): too stable
half-life (0.1 M HCl, 80 °C): 31700 h
half-life (1.0 M HCl, 80 °C): 372 h
half-life (6.0 M HCl, 80 °C): 2.1 h
t½ (0.1 M HCl, 25 °C) (25 °C): too stable

O=C([O-])CN1CCN2CCN(CC(=O)[O-])CCN(CC1)Cc1cccc(n1)-c1cnnn1Cc1cc(-c3ccccc3)cc(n1)C2.[Tm+3] [Ph{Tm}]
half-life, h (0.1 M HCl, 25 °C): too stable
half-life, h (0.1 M HCl, 80 °C): too stable
half-life, h (1.0 M HCl, 80 °C): too stable
half-life (6.0 M HCl, 80 °C): 1360 h
t½ (0.1 M HCl, 25 °C) (25 °C): too stable
t½ (0.1 M HCl, 80 °C) (80 °C): too stable
t½ (1.0 M HCl, 80 °C) (80 °C): too stable
abundance of intact chelate: 100.0%
